Source: ChEMBL document CHEMBL6092221, “Discovery of a Novel Macrocyclic Noncovalent CDK7 Inhibitor for Cancer Therapy” (J Med Chem, 2024)

Tests used:
[1] = Half life in female Balb/c nude mouse at 5 mg/kg, po; assay type: ADME, organism-based; details: in vivo
HCC70 = test: cells; details: Homo sapiens, HCC70, 72 h
Description: Antiproliferative activity against human HCC70 cells assessed as inhibition of cell proliferation incubated for 72 hrs by celltiter-glo assay

[2] = AUC(0 to t) in female Balb/c nude mouse at 5 mg/kg, po; assay type: ADME, organism-based; details: in vivo
OVCAR-3 = test: cells; details: Homo sapiens, OVCAR-3, 72 h
Description: Antiproliferative activity against human OVCAR-3 cells assessed as inhibition of cell proliferation incubated for 72 hrs by celltiter-glo assay

[3] = Permeability in human Caco-2 cells; assay type: ADME, cell-based; details: read-out: permeability
[4] = Oral bioavailability in female Balb/c nude mouse at 5 mg/kg; assay type: ADME, organism-based; details: in vivo
[5] = Volume of distribution at steady state in female Balb/c nude mouse at 1 mg/kg, iv; assay type: ADME, organism-based; details: in vivo, read-out: Vdss
[6] = Efflux ratio of permeability in human Caco-2 cells; assay type: ADME, cell-based
[7] = Clearance in female Balb/c nude mouse at 1 mg/kg, iv; assay type: ADME, organism-based; details: in vivo
[8] = Cmax in female Balb/c nude mouse at 5 mg/kg, po; assay type: ADME, organism-based; details: in vivo
[9] = Metabolic stability in mouse liver microsomes assessed as intrinsic clearance; assay type: ADME, Microsome; details: read-out: CLH
[10] = Half life in female Balb/c nude mouse at 10 mg/kg, po; assay type: ADME, organism-based; details: in vivo
[11] = target: Cyclin-dependent kinase 7/ cyclin H (Homo sapiens, UniProt P50613); test: Binding affinity to CDK7/CyclinH (unknown origin) assessed as dissociation constant by SPR assay; assay type: protein-complex assay
Cyclin-dependent kinase 7/ cyclin H, sequence (P51946 whole entry): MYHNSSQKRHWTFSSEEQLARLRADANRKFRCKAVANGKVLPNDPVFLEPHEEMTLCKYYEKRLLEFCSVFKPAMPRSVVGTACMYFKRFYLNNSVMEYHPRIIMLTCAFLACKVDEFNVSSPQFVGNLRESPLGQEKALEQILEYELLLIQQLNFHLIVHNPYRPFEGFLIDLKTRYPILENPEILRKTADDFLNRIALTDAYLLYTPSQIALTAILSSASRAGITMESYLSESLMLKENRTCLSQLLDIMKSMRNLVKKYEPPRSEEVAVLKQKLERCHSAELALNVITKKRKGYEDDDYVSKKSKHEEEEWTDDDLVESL
Cyclin-dependent kinase 7/ cyclin H, sequence (P50613 whole entry): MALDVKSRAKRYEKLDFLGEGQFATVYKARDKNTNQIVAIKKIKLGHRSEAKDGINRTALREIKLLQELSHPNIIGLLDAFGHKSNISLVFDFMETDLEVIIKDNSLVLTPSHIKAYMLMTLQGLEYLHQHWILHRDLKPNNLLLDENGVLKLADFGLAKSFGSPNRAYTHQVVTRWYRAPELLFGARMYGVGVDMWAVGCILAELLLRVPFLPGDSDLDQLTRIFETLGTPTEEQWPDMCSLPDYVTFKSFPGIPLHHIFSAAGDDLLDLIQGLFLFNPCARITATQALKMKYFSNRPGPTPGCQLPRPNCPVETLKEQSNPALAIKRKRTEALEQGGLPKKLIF

[12] = Oral bioavailability in female Balb/c nude mouse at 10 mg/kg; assay type: ADME, organism-based; details: in vivo
[13] = AUC(0 to infinity) in female Balb/c nude mouse at 1 mg/kg, iv; assay type: ADME, organism-based; details: in vivo
[14] = AUC(0 to infinity) in female Balb/c nude mouse at 10 mg/kg, po; assay type: ADME, organism-based; details: in vivo
[15] = Cmax in female Balb/c nude mouse at 10 mg/kg, po; assay type: ADME, organism-based; details: in vivo

Row | SMILES | half-life [1] [h] | AUC(0-t) [2] [ng·h/mL] | IC50 (OVCAR-3) [nM] | Papp [3] [×10⁻⁶ cm/s] | bioavailability [4] [%] | Vd [5] [L/kg] | efflux ratio [6] | clearance [7] [mL/min/kg] | Cmax [8] [ng/mL] | CLint scaled [9] [mL/min/kg] | half-life [10] [h] | Kd [11] [nM] | bioavailability [12] [%] | AUC(0-inf) [13] [ng·h/mL] | AUC(0-inf) [14] [ng·h/mL] | Cmax [15] [ng/mL] | IC50 (HCC70) [nM]
1 | CP(C)(=O)c1c2ccc3c(c[nH]c13)-c1nc(ncc1C(F)(F)F)N[C@H]1CC[C@@H](C1)NCCCCNC2=O | – | – | – | < 0.48 | – | 3.6 | > 15.1 | 49.3 | – | < 13.4 | 1.4 | 0.16 | 0.7 | 333 | 26 | 16.8 | 33
2 | CP(C)(=O)c1c2ccc3c(c[nH]c13)-c1nc(ncc1C(F)(F)F)N[C@H]1CC[C@@H](C1)NCCCCCNC2=O | – | – | – | – | – | – | – | – | – | – | – | – | – | – | – | – | 202
3 | CN1C[C@H](F)CCN(C)[C@H]2CC[C@@H](C2)Nc2ncc(C(F)(F)F)c(n2)-c2c[nH]c3c(P(C)(C)=O)c(ccc23)C1=O | – | – | 62.6 | 0.9 | – | – | 22.3 | – | – | – | – | – | – | – | – | – | 44

Further lines, with some results ahead:

Row | half-life [1] [h] | AUC(0-t) [2] [ng·h/mL] | IC50 (OVCAR-3) [nM] | Papp [3] [×10⁻⁶ cm/s] | bioavailability [4] [%] | Vd [5] [L/kg] | efflux ratio [6] | clearance [7] [mL/min/kg] | Cmax [8] [ng/mL] | CLint scaled [9] [mL/min/kg] | half-life [10] [h] | Kd [11] [nM] | bioavailability [12] [%] | AUC(0-inf) [13] [ng·h/mL] | AUC(0-inf) [14] [ng·h/mL] | Cmax [15] [ng/mL] | SMILES | IC50 (HCC70) [nM]
4 | 2.1 | 302 | 105 | 0.72 | 22.7 | 5.6 | 19.2 | 62.5 | 105 | – | – | – | – | – | – | – | CN1CCCCN(C)[C@H]2CC[C@@H](C2)Nc2ncc(C(F)(F)F)c(n2)-c2c[nH]c3c(P(C)(C)=O)c(ccc23)C1=O | 22
5 | 1.5 | 572 | 241 | 0.39 | 28.4 | 1.5 | 32.5 | 41.3 | 268 | – | – | – | – | – | – | – | CN1CCOCCN(C)[C@H]2CC[C@@H](C2)Nc2ncc(C(F)(F)F)c(n2)-c2c[nH]c3c(P(C)(C)=O)c(ccc23)C1=O | 56.1
6 | 1 | 563 | 180 | 26 | 30.9 | 1 | 1.1 | 45.8 | 343 | – | – | 3.5 | – | – | – | – | CN1CCCCO[C@H]2CC[C@@H](C2)Nc2ncc(C(F)(F)F)c(n2)-c2c[nH]c3c(P(C)(C)=O)c(ccc23)C1=O | 243
